These results are taken from patent publication US11034692B1 (Genentech, Inc., priority 2017, dated 2021).

In general, Ki refers to the dissociation constant of the complex between target and ligand, obtained from inhibition or displacement.

The structures appear in SMILES notation.

The assay concerns the target HPK1. The experiment in a line: HPK1 Lantha Binding Assay ("Lanth"). As to conditions: Table B1-1, read-out: HPK1 Ki (μM) (Lanth). In outline: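 TR-FRET tracer displacement with 2 nM GST-tagged kinase, 2 nM Eu-anti-GST antibody and 15 nM Tracer222 at 23 C. Enzyme–antibody preincubated 1 h with compound, then tracer added for 1 h; 340 nm excitation, 615/665 nm emission. Ki from Morrison fit over an 11-point 5-fold dilution.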
For `Cn1cc([C@H]2C[C@@H]2C(=O)Nc2cc3cc(-c4cnccc4CCO)nc(N)c3cn2)cn1` [Compound 215, (1S,2S)—N-(8-amino-6-(4-(2-hydroxyethyl)pyridin-3-yl)-2,7-naphthyridin-3-yl)-2-(1-methyl-1H-pyrazol-4-yl)cyclopropanecarboxamide], the Ki came out at 1.19 nM.

Regarding `Cc1ccncc1-c1cc2cc(NC(=O)[C@H]3C[C@@H]3C3CNC(=O)O3)ncc2c(N)n1` (stereo partly drawn) [Compound 231, trans-N-(8-amino-6-(4-methylpyridin-3-yl)-2,7-naphthyridin-3-yl)-2-((S)-2-oxooxazolidin-5-yl)cyclopropanecarboxamide], the Ki came out at 0.173 nM.

`Cc1ccncc1-c1nc(N)c2cnc(NC(=O)[C@H]3C[C@@H]3c3cnn(C)c3)cc2c1Cl` [Compound 233, (1S,2S)—N-(8-amino-5-chloro-6-(4-methylpyridin-3-yl)-2,7-naphthyridin-3-yl)-2-(1-methyl-1H-pyrazol-4-yl)cyclopropanecarboxamide]: the Ki was determined as 0.694 nM.

As to `Cc1ccncc1-c1nc(N)c2cnc(NC(=O)[C@@H]3C[C@H]3c3cnn(C)c3)cc2c1Cl` [Compound 234, (1R,2R)—N-(8-amino-5-chloro-6-(4-methylpyridin-3-yl)-2,7-naphthyridin-3-yl)-2-(1-methyl-1H-pyrazol-4-yl)cyclopropanecarboxamide], the Ki came out at 0.078 nM.

In the case of `N#C[C@@H]1C[C@H]1C(=O)Nc1cc2cc(-c3cnccc3-c3cn[nH]c3)nc(N)c2cn1` [Compound 235, (1R,2R)—N-(6-(4-(1H-pyrazol-4-yl)pyridin-3-yl)-8-amino-2,7-naphthyridin-3-yl)-2-cyanocyclopropanecarboxamide], the Ki is 0.706 nM.

As to `N#C[C@H]1C[C@@H]1C(=O)Nc1cc2cc(-c3cnccc3-c3cn[nH]c3)nc(N)c2cn1` [Compound 236, (1S,2S)—N-(6-(4-(1H-pyrazol-4-yl)pyridin-3-yl)-8-amino-2,7-naphthyridin-3-yl)-2-cyanocyclopropanecarboxamide], the Ki turned out to be 23.3 nM.

For the molecule `Cc1cc(-c2cnn(C)c2)ncc1-c1cc2cc(NC(=O)[C@@H]3C[C@H]3CC#N)ncc2c(N)n1` [Compound 237, (1R,2S)—N-(8-amino-6-(4-methyl-6-(1-methyl-1H-pyrazol-4-yl)pyridin-3-yl)-2,7-naphthyridin-3-yl)-2-(cyanomethyl)cyclopropanecarboxamide], the inhibitory constant (Ki) came to 10.2 nM.

Regarding `Cc1cc(-c2cnn(C)c2)ncc1-c1cc2cc(NC(=O)[C@H]3C[C@@H]3CC#N)ncc2c(N)n1` [Compound 238, (1S,2R)—N-(8-amino-6-(4-methyl-6-(i-methyl-H-pyrazol-4-yl)pyridin-3-yl)-2,7-naphthyridin-3-yl)-2-(cyanomethyl)cyclopropanecarboxamide], the Ki came out at 1.94 nM.

Regarding `COC(C)(C)[C@@H]1C[C@H]1C(=O)Nc1cc2cc(-c3cnccc3C)nc(N)c2cn1` [Compound 239, (1R,2R)—N-[8-amino-6-(4-methylpyridin-3-yl)-2,7-naphthyridin-3-yl]-2-(2-methoxypropan-2-yl)cyclopropane-1-carboxamide], the Ki was found to be 5.28 nM.

In the case of `COC(C)(C)[C@H]1C[C@@H]1C(=O)Nc1cc2cc(-c3cnccc3C)nc(N)c2cn1` [Compound 240, (1S,2S)—N-[8-amino-6-(4-methylpyridin-3-yl)-2,7-naphthyridin-3-yl]-2-(2-methoxypropan-2-yl)cyclopropane-1-carboxamide], the Ki stood at 47 nM.

For `Cc1ccncc1-c1cc2cc(NC(=O)[C@@H]3C[C@H]3C(C)(C)O)ncc2c(N)n1` [Compound 241, (1R,2R)—N-[8-amino-6-(4-methylpyridin-3-yl)-2,7-naphthyridin-3-yl]-2-(2-hydroxypropan-2-yl)cyclopropane-1-carboxamide], the inhibition constant Ki worked out at 2.19 nM.

For the molecule `Cc1ccncc1-c1cc2cc(NC(=O)[C@H]3C[C@@H]3C(C)(C)O)ncc2c(N)n1` [Compound 242, (1S,2S)—N-[8-amino-6-(4-methylpyridin-3-yl)-2,7-naphthyridin-3-yl]-2-(2-hydroxypropan-2-yl)cyclopropane-1-carboxamide], the Ki was 31.2 nM.

With `N#C[C@@H]1C[C@H]1C(=O)Nc1cc2cc(-c3cnccc3-c3cc[nH]n3)nc(N)c2cn1` [Compound 243, (1R,2R)—N-(6-(4-(1H-pyrazol-3-yl)pyridin-3-yl)-8-amino-2,7-naphthyridin-3-yl)-2-cyanocyclopropanecarboxamide], the Ki was determined as 1.37 nM.

As to `N#C[C@H]1C[C@@H]1C(=O)Nc1cc2cc(-c3cnccc3-c3cc[nH]n3)nc(N)c2cn1` [Compound 244, (1S,2S)—N-(6-(4-(1H-pyrazol-3-yl)pyridin-3-yl)-8-amino-2,7-naphthyridin-3-yl)-2-cyanocyclopropanecarboxamide], the Ki amounted to 3.56 nM.

For the molecule `Nc1nc(-c2cnccc2CCO)cc2cc(NC(=O)[C@H]3C[C@@H]3c3cnsc3)ncc12` [Compound 245, (1S,2S)—N-(8-amino-6-(4-(2-hydroxyethyl)pyridin-3-yl)-2,7-naphthyridin-3-yl)-2-(isothiazol-4-yl)cyclopropanecarboxamide], the Ki worked out at 5.42 nM.

Regarding `Nc1nc(-c2cnccc2CCO)cc2cc(NC(=O)[C@@H]3C[C@H]3c3cnsc3)ncc12` [Compound 246, (1R,2R)—N-(8-amino-6-(4-(2-hydroxyethyl)pyridin-3-yl)-2,7-naphthyridin-3-yl)-2-(isothiazol-4-yl)cyclopropanecarboxamide], the Ki turned out to be 0.0455 nM.

As to `Cc1c(N)cncc1-c1cc2cc(NC(=O)[C@H]3C[C@@H]3CC#N)ncc2c(N)n1` [Compound 247, (1S,2R)—N-[8-amino-6-(5-amino-4-methylpyridin-3-yl)-2,7-naphthyridin-3-yl]-2-(cyanomethyl)cyclopropane-1-carboxamide], the Ki is 0.0219 nM.

As to `Cc1c(N)cncc1-c1cc2cc(NC(=O)[C@@H]3C[C@H]3CC#N)ncc2c(N)n1` [Compound 248, (1R,2S)—N-[8-amino-6-(5-amino-4-methylpyridin-3-yl)-2,7-naphthyridin-3-yl]-2-(cyanomethyl)cyclopropane-1-carboxamide], the Ki stood at 1.03 nM.

For the molecule `Cc1ccncc1-c1cc2cc(Nc3cnn([C@@H]4CCN(C)C4=O)c3)ncc2c(N)n1` [Compound 249, (3R)-3-(4-[[8-amino-6-(4-methylpyridin-3-yl)-2,7-naphthyridin-3-yl]amino]-1H-pyrazol-1-yl)-1-methylpyrrolidin-2-one], the inhibitory constant (Ki) was 0.433 nM.

Consider `Cc1ccncc1-c1cc2cc(Nc3cnn([C@H]4CCN(C)C4=O)c3)ncc2c(N)n1` [Compound 250, (3S)-3-(4-[[8-amino-6-(4-methylpyridin-3-yl)-2,7-naphthyridin-3-yl]amino]-1H-pyrazol-1-yl)-1-methylpyrrolidin-2-one], for which the Ki stood at 0.184 nM.

In the case of `Cc1ccncc1-c1cc2cc(Nc3cnn([C@@H]4CCCN(C)C4=O)c3)ncc2c(N)n1` [Compound 251, (3R)-3-(4-[[8-amino-6-(4-methylpyridin-3-yl)-2,7-naphthyridin-3-yl]amino]-1H-pyrazol-1-yl)-1-methylpiperidin-2-one], the Ki stood at 0.512 nM.

Consider `Cc1ccncc1-c1cc2cc(Nc3cnn([C@H]4CCCN(C)C4=O)c3)ncc2c(N)n1` [Compound 252, (3S)-3-(4-[[8-amino-6-(4-methylpyridin-3-yl)-2,7-naphthyridin-3-yl]amino]-1H-pyrazol-1-yl)-1-methylpiperidin-2-one], for which the Ki turned out to be 0.569 nM.

In the case of `Nc1nc(-c2cnccc2CCO)cc2cc(NC(=O)[C@@H]3C[C@H]3c3cccnc3)ncc12` [Compound 253, (1R,2R)—N-[8-amino-6-[4-(2-hydroxyethyl)pyridin-3-yl]-2,7-naphthyridin-3-yl]-2-(pyridin-3-yl)cyclopropane-1-carboxamide], the Ki is 0.0892 nM.

For the molecule `Nc1nc(-c2cnccc2CCO)cc2cc(NC(=O)[C@H]3C[C@@H]3c3cccnc3)ncc12` [Compound 254, (1S,2S)—N-[8-amino-6-[4-(2-hydroxyethyl)pyridin-3-yl]-2,7-naphthyridin-3-yl]-2-(pyridin-3-yl)cyclopropane-1-carboxamide], the Ki was found to be 4.55 nM.

In the case of `Cc1ccncc1-c1cc2cc(NC(=O)[C@H]3[C@@H]4CN(C5COC5)C[C@@H]43)ncc2c(N)n1` [Compound 255, (exo)-N-[8-amino-6-(4-methylpyridin-3-yl)-2,7-naphthyridin-3-yl]-3-(oxetan-3-yl)-3-azabicyclo[3.1.0]hexane-6-carboxamide], the inhibitory constant (Ki) is 33.9 nM.

For the molecule `Cc1ccncc1-c1cc2cc(Nc3cnn(CC(F)F)c3)ncc2c(N)n1` [Compound 257, 6-N-[1-(2,2-difluoroethyl)-1H-pyrazol-4-yl]-3-(4-methylpyridin-3-yl)-2,7-naphthyridine-1,6-diamine], the Ki was 1.01 nM.

With `Cc1ccncc1-c1nc(N)c2cnc(NC(=O)C3CC3)cc2c1-c1cn[nH]c1` [Compound 258, N-(8-amino-6-(4-methylpyridin-3-yl)-5-(1H-pyrazol-4-yl)-2,7-naphthyridin-3-yl)cyclopropanecarboxamide], the Ki turned out to be 0.695 nM.

With `Cc1ccncc1-c1cc2cc(Nc3cc(C4CC4)n(CCO)n3)ncc2c(N)n1` [Compound 259, 2-(3-[[8-amino-6-(4-methylpyridin-3-yl)-2,7-naphthyridin-3-yl]amino]-5-cyclopropyl-1H-pyrazol-1-yl)ethan-1-ol], the Ki stood at 146 nM.

`Cc1ccncc1-c1cc2cc(Nc3cnn(CC(C)(C)O)c3)ncc2c(N)n1` [Compound 260, 1-(4-[[8-amino-6-(4-methylpyridin-3-yl)-2,7-naphthyridin-3-yl]amino]-1H-pyrazol-1-yl)-2-methylpropan-2-ol]: the Ki was found to be 0.73 nM.

Consider `Cc1cc(Nc2cc3cc(-c4cnccc4C)nc(N)c3cn2)n(CCO)n1` [Compound 261, 2-(5-[[8-amino-6-(4-methylpyridin-3-yl)-2,7-naphthyridin-3-yl]amino]-3-methyl-1H-pyrazol-1-yl)ethan-1-ol], for which the Ki was 36.7 nM.

With `CNC(=O)c1cc(Nc2cc3cc(-c4cnccc4C)nc(N)c3cn2)nn1C` [Compound 263, 3-[[8-Amino-6-(4-methylpyridin-3-yl)-2,7-naphthyridin-3-yl]amino]-N,1-dimethyl-1H-pyrazole-5-carboxamide], the Ki came to 0.021 nM.
